Experimental data: patent US8653069B2, “Aralkyl substituted piperidine or piperazine derivatives and their use for treating schizophrenia” (Jiangsu Hengyi Pharmaceutical Co., Ltd., priority 2008, dated 2014)
Counter-ions that a name gives are not always drawn.

target: T1, dopamine D2 receptor (Homo sapiens, UniProt P14416); test: Dopamine D2 receptor-binding assay ([3H]Spiperone displacement); details: inhibition of binding of 0.4 nM [3H]Spiperone, CHO-hD2L film product, room temperature 120 minutes; read-out: IC50 (affinity to D2 receptor)
T1 construct: expressed in transfected cells; host or cells: CHO-hD2L cells (membrane preparation)
T1 sequence (P14416 whole entry): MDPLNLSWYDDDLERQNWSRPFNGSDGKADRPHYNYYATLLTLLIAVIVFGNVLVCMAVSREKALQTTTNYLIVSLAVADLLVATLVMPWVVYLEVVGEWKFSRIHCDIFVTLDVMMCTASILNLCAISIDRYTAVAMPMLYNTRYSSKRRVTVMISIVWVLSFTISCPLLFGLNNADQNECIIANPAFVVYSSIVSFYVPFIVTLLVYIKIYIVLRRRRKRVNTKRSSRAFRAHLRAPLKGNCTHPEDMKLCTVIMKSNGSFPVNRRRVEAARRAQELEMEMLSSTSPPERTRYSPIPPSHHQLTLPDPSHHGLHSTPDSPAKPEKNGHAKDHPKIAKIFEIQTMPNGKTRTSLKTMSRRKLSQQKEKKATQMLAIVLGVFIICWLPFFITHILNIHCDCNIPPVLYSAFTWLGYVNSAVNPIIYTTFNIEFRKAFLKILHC
Procedure: A Dopamine D2 Receptor-Binding Assay
An isotope ligand for D2 receptor: [^3H]Spiperone (77.0 Ci/mmol); (+)Butaclamol; GF/C glass fiber media; a liposoluble scintillation solution; and the D2 receptor protein expressed by sf9 cells.
A binding assay of a film product of CHO-hD2L cells and [^3H]Spiperone is conducted in a 250 μl of 50 mM of Tris-HCl […] buffer (Ph=7.4) solution comprising 100 mM of NaCl, 1 mM of MgC12 and 1% of DMSO. A sample in duplicate containing compounds to be tested, 0.4 nM of [^3H]Spiperone and 12 ug of protein is maintained at room temperature for 120 minutes. The bound radioactive ligand is separated by flash filtration under reduced pressure using Whatman GF/B glass fiber filter pre-treated with 0.3% polyethylenelmine, and radioactivity maintained on the filter is measured using liquid scintillation spectrophotometry. The title compounds in the following examples are tested using the above test, which comprises first of all testing competitive inhibition rate of each compound at a concentration of 10 umol/L to binding of [^3H]Spiperone to D2 receptor through a rough screening; and compounds having inhibition rate higher than 95% are subjected to receptor binding assay under a series of concentrations to determine a half-inhibitory concentration (IC50, the concentration of a compound needed for inhibiting binding of 50% [^3H]Spiperone to D2 receptor). Two tubes under each concentration are measured, and each compound is subjected to two independent tests.

| Compound | IC50 |
| --- | --- |
| 6-[4-(4-(3-(6-fluoro-benzisoxazolyl))-1-piperazinyl)-n-butoxy]-(1H)-indole [IV-3] | 12.3 nM |
| O=C1CCc2ccc(OCCCCN3CCN(c4noc5cc(Cl)ccc45)CC3)cc2N1 [I-1, 7-[4-(4-(6-chloro-benzisoxazolyl)-1-piperazinyl)-n-butoxy]-3,4-dihydro-2(1H)-quinolinone hydrochloride] | 25.7 nM |
| O=C1CCc2ccc(OCCCCN3CCN(c4noc5ccc(Cl)cc45)CC3)cc2N1 [I-2, 7-[4-(4-(5-chloro-benzisoxazolyl)-1-piperazinyl)-n-butoxy]-3,4-dihydro-2(1H)-quinolinone hydrochloride] | 56.8 nM |
| O=C1CCc2ccc(OCCCCN3CCN(c4noc5ccccc45)CC3)cc2N1 [I-3, 7-[4-(4-(benzisoxazolyl)-1-piperazinyl)-n-butoxy]-3,4-dihydro-2(1H)-quinolinone hydrochloride] | 99.3 nM |
| O=C1CCc2ccc(OCCCCN3CCN(c4noc5cc(F)ccc45)CC3)cc2N1 [I-4, 7-[4-(4-(6-fluoro-benzisoxazolyl)-1-piperazinyl)-n-butoxy]-3,4-dihydro-2(1H)-quinolinone hydrochloride] | 10.2 nM |
| O=C1CCc2ccc(OCCCCN3CCN(c4noc5cc(C(F)(F)F)ccc45)CC3)cc2N1 [I-5, 7-[4-(4-(6-trifluoromethyl-benzisoxazolyl)-1-piperazinyl)-n-butoxy]-3,4-dihydro-2(1H)-quinolinone hydrochloride] | 53.6 nM |
| Cc1ccc2onc(N3CCN(CCCCOc4ccc5c(c4)NC(=O)CC5)CC3)c2c1 [I-7, 7-[4-(4-(5-methyl-benzisoxazoly)-1-piperazinyl)-n-butoxy]-3,4-dihydro-2(1H)-quinolinone hydrochloride] | 290 nM |
| O=C1CCc2ccc(OCCCCN3CCN(c4noc5cc(O)ccc45)CC3)cc2N1 [I-8, 7-[4-(4-(6-hydroxy-benzisoxazolyl)-1-piperazinyl)-n-butoxy]-3,4-dihydro-2(1H)-quinolinone hydrochloride] | 157 nM |
| COc1ccc2onc(N3CCN(CCCCOc4ccc5c(c4)NC(=O)CC5)CC3)c2c1 [I-9, 7-[4-(4-(5-methoxy-benzisoxazolyl)-1-piperazinyl)-n-butoxy]-3,4-dihydro-2(1H)-quinolinone hydrochloride] | 25 nM |
| O=C1CCc2ccc(OCCCCN3CCN(c4noc5ccc(Br)cc45)CC3)cc2N1 [I-11, 7-[4-(4-(5-bromo-benzisoxazolyl)-1-piperazinyl)-n-butoxy]-3,4-dihydro-2(1H)-quinolinone hydrochloride] | 77.8 nM |
| COc1ccc2c(N3CCN(CCCCOc4ccc5c(c4)NC(=O)CC5)CC3)noc2c1Br [I-12, 7-[4-(4-(7-bromo-6-methoxy-benzisoxazolyl)-1-piperazinyl)-n-butoxy]-3,4-dihydro-2(1H)-quinolinone hydrochloride] | 10.2 nM |
| O=C1CCc2ccc(OCCCN3CCC(c4noc5cc(F)ccc45)CC3)cc2N1 [II-2, 7-[3-(4-(6-fluoro-benzisoxazolyl)-1-piperidinyl)-n-propoxy]-3,4-dihydro-2(1H)-quinolinone hydrochloride] | 16.2 nM |
| O=C1CCc2ccc(OCCCCCN3CCC(c4noc5cc(F)ccc45)CC3)cc2N1 [II-3, 7-[5-(4-(6-fluoro-benzisoxazolyl)-1-piperidinyl)-pentyloxy]-3,4-dihydro-2(1H)-quinolinone hydrochloride] | 202 nM |
| O=C1CCc2ccc(OCCCCN3CCC(c4noc5ccccc45)CC3)cc2N1 [II-4, 7-[(4-benzisoxazolyl-1-piperidinyl)-n-butoxy]-3,4-dihydro-2(1H)-quinolinone hydrochloride] | 23.6 nM |
| O=C1CCc2ccc(OCCCCN3CCC(c4noc5cc(Cl)ccc45)CC3)cc2N1 [II-5, 7-[4-(4-(6-chloro-benzisoxazolyl)-1-piperidinyl)-n-butoxy]-3,4-dihydro-2(1H)-quinolinone hydrochloride] | 15.8 nM |
